# Results: US9447020B2, “Polyunsaturated fatty acid monoglycerides, derivatives, and uses thereof” (SCF PHARMA INC., priority 2013, dated 2016)
# Tests used:
# SW620 cells = test: Effect on growth of SW620 cells (cell counting, trypan blue); type: cell-based, Human; details: for IC50: SW620 colorectal carcinoma cells, 48 h treatment, 0.2% FBS, cumulative concentration response curve
# Experimental: Human SW620 colorectal carcinoma cells were obtained from the American Type Culture Collection (ATCC) and maintained in Leitbovitz's L-15 medium containing 10% FBS, 10 mM HEPES, 2.2 g/L Na2C03 and 10 units/ml penicillin, 100 μg/ml streptomycin. Cells were grown in a 5% CO2 incubator at 37° C. A predefined number of SW620 cells were allowed to grow in 24 wells plates (1×10^4 cells/well) for 3 days until cells reached 80% confluence. Then, cells were starved in Leitbovitz's medium without FBS for 8 h. Then, the culture medium was replaced with Leitbovitz+0.2% FBS and different concentrations of MAG-DHA, MAG-EPA or MAG-DPA (0.1, 0.3, 1, 3, 10, 30 and 100 μM) were added to each well. Culture media were changed every 24 h and cells were treated for 48 h. After 48, the medium was removed from the culture plates and 0.05% trypsing EDTA was used to detach the cells from the surface of the culture plates. The harvested cells were counted, both the viable and dead ones, using a Countess Automated Cell Counter (Invitrogen Inc.). Briefly, for each condition an appropriated cell dilution was prepared from the harvested cells and an aliquot was mixed with an equal volume of 0.4% trypan blue, and 10 μl was transferred into each side of a Countess™ chamber slide. All concentrations tested were performed in triplicata and were representative of 5 independent experiment.
# FIG. 2 represents an in vitro cumulative concentration response curves (CCRC) of MAG-DHA, MAG-EPA and MAG-DPA ([…]) on SW620 cell growth.
# [1] = system: A549 human cancer cell line; test: In vivo tumor xenograft experiment: tumor tissue fatty acid composition after oral MAG-DHA; details: A549 xenografts in female CD-1 nude mice; per os 618 mg/kg daily for 48 days; tumors harvested 24 hours after treatment completion; HPLC-MS
# Experimental: Female CD-1 nude mice were obtained from Charles River Laboratories (Montreal, Qc, Canada). All studies involving mice were approved by the institutional animal care committee (Protocol: #237-10). Human A549 xenografts were established in 4-week-old female CD-1 nude mice. Mice were inoculated with 0.2 ml of a solution of 1×10^6 A549 cells subcutaneously on the right flank. Mice were randomly assigned into 3 groups, control (untreated), corn oil and MAG-DHA (CA2672513, CA2677670) treated (n=6 per group). Corn oil and MAG-DHA were administrated per os (618 mg/kg) daily following cell inoculation. Treatments were continued for 48 days. Mice were sacrificed when tumor volume reached ≈1.5 cm3 in the control group. Tumor tissues were harvested 24 hours after treatment completion. Tumor tissue fatty acids compositions were measured using a high-performance liquid chromatography (HPLC)-MS method [Gagne S and al. J Lipid Res 2007 January; 48(1):252-9] modified to detect complete fatty acid composition. Data were acquired in SIM mode corresponding to the following fatty acids: C20:4 (AA), C20:5 (EPA), C22:5 (DPA), C22:6 (DHA). The linear calibration curves were obtained in the concentration range of 2 to 500 μg/ml
# FIG. 1 represents the fatty acids compositions of tumors after MAG-DHA oral supplementation.
IC50 (SW620 cells) [nM],"fatty acids compositions of tumors (EPA, DHA, DPA) compared to control and corn oil groups [1]","IC50 (SW620 cells; Homo sapiens, SW-620, 48 h) [nM]",SMILES,"times more active than MAG-EPA or MAG-DHA (SW620 cells; SW620 cell growth, comparison of IC50 values) [times]"
370,–,–,"CC/C=C\C/C=C\C/C=C\C/C=C\C/C=C\CCCCCC(=O)OCC(O)CO (stereo not drawn) [MAG-DPA, sn1(3)-all-cis-7,10,13,16,19-docosapentaenoylglyceride]",10
2900,"significant increase in EPA, DHA and DPA",–,"CC/C=C\C/C=C\C/C=C\C/C=C\C/C=C\CCCCCC(=O)OCC(O)CO (stereo not drawn) [MAG-DHA, sn1(3)-all-cis-4,7,10,13,16,19-docosahexaenoylglyceride]",–
–,–,3200,"CC/C=C\C/C=C\C/C=C\C/C=C\C/C=C\CCCC(=O)OCC(O)CO (stereo not drawn) [MAG-EPA, sn1(3)-all-cis-5,8,11,14,17-eicosapentaenoylglyceride]",–
